US20260182575A1, “MOLECULES HAVING PESTICIDAL UTILITY AND INTERMEDIATES AND PROCESSES RELATED THERETO” (CORTEVA AGRISCIENCE LLC, priority 2022, published 2026)
Several values for one entry are separate records, joined by “and”; a condition that tells them apart may be missing. Identical values can stand only once.

Legend:
[1] = test system: Western Flower Thrips (Frankliniella occidentalis, FRANOC, WFT); experiment: Bioassay 3: western flower thrips, cotton leaf disc dip; type: in vivo; conditions: for Average % Control AI: 3 days; for Average % Control F1: F1 alone, 3 days after treatment
[2] = test system: Brown Planthopper (Nilaparvata lugens, NILALU, BPH); experiment: Bioassay 6: brown planthopper, sprayed rice seedlings; type: in vivo; conditions: AI alone, AI Rate 0.049 g/ha, 6 days
Description: At these rates, F1 and the individual active ingredients were tested at a ratio of 1:1. […] F1 and triflumezopyrim were tested at a ratio of 16:1. Test solutions were prepared containing F1, the individual active ingredients, and mixtures of F1 with each of the active ingredients. Test solutions were prepared by weighing 5 mg of each test chemistry (either alone or in combination depending on the treatment) into a 25 mL glass vial. Next, 1 mL of acetone was added to each vial to dissolve the test chemistries, followed by 19 mL of water with 0.125% Tween 20 adjuvant. This test solution represented the 50 g/ha treatment, which was then serially diluted four-fold to create the three lower rates of 12.5, 3.125, and 0.78 g/ha. Triflumezopyrim was prepared in a similar manner, but two additional serial dilutions were conducted to create solutions representing 6 rates of 12.5, 3.125, 0.78, 0.19, 0.049, and 0.012 g/ha. The higher two doses were discarded, and the four lower doses were used for testing. Each rate was replicated four times, and solvent blanks were used as control treatments.
Five (5) rice seedlings (10-12 days old) planted in 3-inch pots were used as test plants. Rice seedlings were grown in soil and the soil was covered with a 2% agar solution. The test solutions were applied to test plants using a Devries laboratory research sprayer, set to spray at 200 liters per hectare (L/ha) using a TeeJet hollow cone nozzle. Following application, the rice seedlings were dried for 1 hour, after which a single clear plastic tube (2 inches in diameter×12 inches in height) was placed over the seedlings in each pot. The tube was pushed down into the agar to create a sealed test chamber. The agar prevented insects from hiding in the soil and made adult collection and grading easier. Ten to fifteen (10-15) 5th instar BPH nymphs were transferred to each test chamber using a vacuum aspirator. Immediately following BPH infestation, the test chamber was covered with a piece of grade 90 cheesecloth and secured with a rubber band, sealing the test chamber. The test chambers were held at 25° C. for 6 days, after which the total number of live insects was counted in each test chamber. Percent control was measured using Abbott's correction formula (W. S. Abbott, J. Econ. Entomol. 18 (1925), pp. 265-267) as follows:
where X=No. of live insects on solvent check and Y=No. of live insects in treated chambers. In Table B6 the “Expected % Control” was calculated using the method described in Colby S. R., Weeds, 1967, 15, 20-22. Bioassay 7: Corn Earworm (Helicoverpa zea, HELIZE, “CEW”), Fall Armyworm (Spodoptera frugiperda, LAPHFR, “FAW”), Beet Armyworm (Spodoptera exigua, LAPHEG, “BAW”),and Soybean Looper (Chrysodeixis includens, PSEPIN, “SBL”).

[3] = AI alone at 1:1 rate to F1 3.125 (10^-6 Wt %)
[4] = AI alone at 1:1 rate to F1 0.78 (10^-6 Wt %)

With `CON=CNC(=O)c1ccc(C2=NOC(c3cc(Cl)cc(Cl)c3)(C(F)(F)F)C2)cc1C` (stereo not drawn) [Fluxametamide] the “Average % Control AI” value [1, 3] was 4.8% and the “Average % Control AI” value [2] was 42.3%.
Chlorfenapyr was tested, and the “Average % Control AI” value [1, 4] was 16.7%.
For `C[C@]1(COC(=O)C2CC2)[C@@H]2C[C@H](O)[C@@]3(C)Oc4cc(-c5cccnc5)oc(=O)c4[C@H](O)[C@@H]3[C@@]2(C)CC[C@@H]1OC(=O)C1CC1` [Afidopyropen], the “Average % Control AI” value ([1]; AI alone at 1:1 rate to F1 12.5 (10^-6 Wt %)) was 0.0%, the “Average % Control AI” value ([1]; AI alone at 1:1 rate to F1 50 (10^-6 Wt %)) was 5.7% and the “Average % Control AI” value [2] was 11.4%.
In the case of `Cc1c(COC(=O)[C@@H]2[C@H](/C=C(\Cl)C(F)(F)F)C2(C)C)cccc1-c1ccccc1` (racemic) [Bifenthrin], the “Average % Control AI” value [1, 3] is reported as 11.5%.
For `COC(=O)N(C(=O)N1CO[C@@]2(C(=O)OC)Cc3cc(Cl)ccc3C2=N1)c1ccc(OC(F)(F)F)cc1` [Indoxacarb], the “Average % Control AI” value [2] was 1.2%.
For `CC1=NNC(=O)N(/N=C/c2cccnc2)C1` [Pymetrozine], the “Average % Control AI” value [1, 3] was 21.4%.
With `Cc1ccc(COCC(F)(F)F)c(N2C(=O)CS/C2=N\C(=O)Nc2ccc(-c3ncn(-c4ccc(OC(F)(F)F)cc4)n3)cc2F)c1` [F1] the “Average % Control F1” value ([1]; Wt % F1 (10^-6) 0.195, cotton leaf disc) was 0.0% and 5.7%, the “Average % Control F1” value ([1]; Wt % F1 (10^-6) 12.5, cotton leaf disc) was 46.0% and the “Average % Control F1” value ([1]; Wt % F1 (10^-6) 50, cotton leaf disc) was 79.3%.
In the case of `CN1COCN(Cc2cnc(Cl)s2)/C1=N\[N+](=O)[O-]` [Thiamethoxam], the “Average % Control AI” value ([1]; AI alone at 1:1 rate to F1 0.195 (10^-6 Wt %)) is reported as 20.0%, the “Average % Control AI” value [1, 4] is reported as 20.0% and the “Average % Control AI” value [1, 3] is reported as 6.7%.
